Results: BigSolDB 2.1

COC(=O)[C@@H](N)CC(C)C.Cl
solubility (mole fraction)
Conditions | 283.15 K | 288.15 K | 293.15 K | 298.15 K | 303.15 K | 308.15 K | 313.15 K | 318.15 K | 323.15 K | 328.15 K
in 1,4-dioxane | – | 0.0539 | 0.0579 | 0.0621 | 0.0715 | 0.0799 | 0.0918 | 0.11 | 0.127 | 0.158
in 2-butanone | 0.00114 | 0.00125 | 0.00141 | 0.00158 | 0.00186 | 0.00238 | 0.00297 | 0.00388 | 0.00524 | –
in acetone | 0.00343 | 0.00389 | 0.00451 | 0.00562 | 0.00661 | 0.00806 | 0.01 | 0.0129 | 0.0172 | –
in acetonitrile | 0.00109 | 0.00154 | 0.00205 | 0.00313 | 0.00401 | 0.0051 | 0.00776 | 0.011 | 0.0162 | –
in dimethyl carbonate | 0.000287 | 0.000319 | 0.00038 | 0.000478 | 0.000629 | 0.000924 | 0.00127 | 0.00167 | 0.00213 | –
in ethyl acetate | 0.000226 | 0.000237 | 0.000277 | 0.000342 | 0.000421 | 0.000593 | 0.000729 | 0.000892 | 0.00124 | –
in isopropyl acetate | 0.000136 | 0.000152 | 0.000178 | 0.000219 | 0.000246 | 0.00029 | 0.000358 | 0.000429 | 0.000561 | –
in methyl acetate | 0.000388 | 0.000472 | 0.000629 | 0.000834 | 0.00105 | 0.00138 | 0.0019 | 0.00244 | 0.00347 | –
in n-butanol | 0.0885 | 0.0916 | 0.0983 | 0.109 | 0.123 | 0.139 | 0.155 | 0.171 | 0.196 | –
in n-hexane | 0.000296 | 0.000331 | 0.000371 | 0.000433 | 0.000505 | 0.00063 | 0.000782 | 0.000983 | 0.0012 | –
in n-pentanol | 0.0571 | 0.062 | 0.0696 | 0.0787 | 0.0917 | 0.104 | 0.121 | 0.137 | 0.156 | –
in n-propyl acetate | 0.00123 | 0.00129 | 0.00145 | 0.00189 | 0.00234 | 0.00292 | 0.0036 | 0.00455 | 0.00541 | –
